Results published in PubChem BioAssay AID624425 (The Scripps Research Institute Molecular Screening Center, 2012).

Molecular target: Serine/threonine-protein phosphatase 5 (Homo sapiens) (UniProt P53041)
Assay: PP5 catalytic domain inhibition IC50 – biochemical, fluorescence, round 5, powder samples, dose response (AID 624425)
Settings: purified PP5c, OMFP dephosphorylation

Chain of Serine/threonine-protein phosphatase 5 (Homo sapiens) (P53041 whole entry, looked up, the tested form may be a part): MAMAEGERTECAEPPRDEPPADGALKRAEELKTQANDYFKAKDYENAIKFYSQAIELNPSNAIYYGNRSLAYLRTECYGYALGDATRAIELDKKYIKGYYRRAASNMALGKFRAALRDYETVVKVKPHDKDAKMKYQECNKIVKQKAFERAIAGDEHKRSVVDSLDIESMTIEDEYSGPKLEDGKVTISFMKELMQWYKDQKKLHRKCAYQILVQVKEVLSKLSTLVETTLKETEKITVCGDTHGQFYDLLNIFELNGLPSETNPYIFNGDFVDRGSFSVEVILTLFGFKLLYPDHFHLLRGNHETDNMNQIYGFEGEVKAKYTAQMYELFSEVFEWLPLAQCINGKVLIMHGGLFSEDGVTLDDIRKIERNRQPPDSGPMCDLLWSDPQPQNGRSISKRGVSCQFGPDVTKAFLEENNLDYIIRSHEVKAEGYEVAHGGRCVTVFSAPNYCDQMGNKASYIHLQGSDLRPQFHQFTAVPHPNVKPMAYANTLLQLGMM

SMILES	IC50 [µM]
O=C(O)c1n[nH]nc1-c1ccccc1F	7.75
COc1cccc(-c2n[nH]nc2C(=O)O)c1	10.9
COc1ccc(-c2n[nH]nc2C(=O)O)cc1	23.1
O=C(O)c1n[nH]nc1-c1ccc(F)cc1	24.1
O=C(O)c1n[nH]nc1-c1cccc(F)c1	17.8

Results, then the molecule that gave them:

IC50 [µM]	SMILES
6	COc1ccccc1-c1n[nH]nc1C(=O)O
7.74	O=C(O)c1n[nH]nc1-c1ccccc1O
